Experimental data from patent US20170065564A1, “BIS-CYCLIC GUANIDINE COMPOUND COMPOSITIONS, METHODS OF USE AND TREATMENT THEREOF” (University of South Florida, priority 2014, published 2017).
In brackets after ≈: the same amount, converted by molar mass.

How the values were obtained:
[1] = tested on: Staphylococcus aureus (USA300 strain FPR3757); test: Murine model of lethal peritonitis; assay type: in vivo, mice; conditions: 2× MIC, I.M., 1 h post-infection, six mice per group
Method in brief: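 Mice (six per group) received 1×10^8 CFU ml^−1 S. aureus USA300 FPR3757 in PBS with 5% mucin intraperitoneally; compounds were given I.M., vancomycin control I.V., 1 h post-infection. Survival was monitored twice daily for five days with a pre-moribund endpoint, and groups were compared by log rank test.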

K. pneumoniae = test: Resistance serial passage assay; assay type: cell-based, Klebsiella pneumoniae; conditions: 8 passages, concentration doubled each day
Method in brief: (§1)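 Cultures were diluted 1:100 and exposed to compound starting at half MIC, incubated 24 h at 37 °C. Each day, cells were passaged 1:100 into fresh media with compound at 2-fold higher concentration, for eight days in total. Run in triplicate.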

Staphylococcus aureus = test: MIC micro broth dilution assay; assay type: cell-based; conditions: for MIC: Staphylococcus aureus
Method in brief: (§2)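 Strains were multidrug-resistant clinical isolates grown in LB (Gram-negative) or TSB (Gram-positive), diluted 1:1,000 before compound addition.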

Enterococcus faecium = test: MIC micro broth dilution assay; assay type: cell-based; conditions: for MIC: Enterococcus faecium
Method in brief: as §2

Enterobacter cloacae = test: MIC micro broth dilution assay; assay type: cell-based; conditions: for MIC: Enterobacter cloacae
Method in brief: as §2

Pseudomonas aeruginosa = test: MIC micro broth dilution assay; assay type: cell-based; conditions: for MIC: Pseudomonas aeruginosa
Method in brief: as §2

A. baumannii = test: Resistance serial passage assay; assay type: cell-based, Acinetobacter baumannii; conditions: 8 passages, concentration doubled each day
Method in brief: as §1

[2] = tested on: Staphylococcus aureus biofilm; test: Minimum biofilm eradication concentration (MBEC) assay; assay type: cell-based; conditions: 24 h biofilm, purified compound
[3] = tested on: Enterobacter cloacae biofilm; test: as above; assay type: cell-based; conditions: 24 h biofilm, purified compound
[4] = tested on: Pseudomonas aeruginosa biofilm; test: as above; assay type: cell-based; conditions: 24 h biofilm, purified compound
[5] = tested on: Klebsiella pneumoniae biofilm; test: as above; assay type: cell-based; conditions: 24 h biofilm, purified compound
[6] = tested on: Enterococcus faecium biofilm; test: as above; assay type: cell-based; conditions: 24 h biofilm, purified compound
[7] = tested on: Acinetobacter baumannii biofilm; test: as above; assay type: cell-based; conditions: 24 h biofilm, purified compound

CCCCCCCN1C(=N)N(CCCC[C@H]2CNC(=N)N2CCc2cccc(C(F)(F)F)c2)C[C@@H]1CC1CCCCC1 [Compound 7]
survival of infected mice over 5 day infection period [1]: 1 mouse lost on each of days 2 and 4 | increase in MIC after serial passage (K. pneumoniae): 8 fold | stacked score activity, 100/MIC, S (Staphylococcus aureus; S. aureus): 33 | MIC (Staphylococcus aureus; S. aureus isolate 542): 2 µM (≈ 1.18 µg/mL) | MIC (Staphylococcus aureus; S. aureus isolate 626): 2 µM (≈ 1.18 µg/mL) | MIC (Staphylococcus aureus; S. aureus isolate 635): 2 µM (≈ 1.18 µg/mL) | MIC (Staphylococcus aureus; S. aureus isolate 648): 2 µM (≈ 1.18 µg/mL) | MIC (Staphylococcus aureus; S. aureus isolate 690): 2 µM (≈ 1.18 µg/mL) | MIC (Staphylococcus aureus; S. aureus isolate 693): 2 µM (≈ 1.18 µg/mL) | MIC (Staphylococcus aureus; S. aureus isolate 715): 2 µM (≈ 1.18 µg/mL) | MIC (Staphylococcus aureus; S. aureus isolate 728): 2 µM (≈ 1.18 µg/mL) | MIC (Staphylococcus aureus; S. aureus isolate 834): 2 µM (≈ 1.18 µg/mL) | MIC (Staphylococcus aureus; S. aureus isolate 1043): 2 µM (≈ 1.18 µg/mL) | MIC (Staphylococcus aureus; S. aureus isolate 1049): 2 µM (≈ 1.18 µg/mL) | MIC (Staphylococcus aureus; purified compound, Table 1): 1.52 µM (≈ 0.898 µg/mL) | stacked score activity, 100/MIC, E (Enterococcus faecium; E. faecium): 33 | MIC (Enterococcus faecium; E. faecium isolate 1406): 2 µM (≈ 1.18 µg/mL) | MIC (Enterococcus faecium; E. faecium isolate 1407): 2 µM (≈ 1.18 µg/mL) | MIC (Enterococcus faecium; E. faecium isolate 1432): 2 µM (≈ 1.18 µg/mL) | MIC (Enterococcus faecium; E. faecium isolate 1438): 2 µM (≈ 1.18 µg/mL) | MIC (Enterococcus faecium; E. faecium isolate 1439): 2 µM (≈ 1.18 µg/mL) | MIC (Enterococcus faecium; E. faecium isolate 1443): 2 µM (≈ 1.18 µg/mL) | MIC (Enterococcus faecium; E. faecium isolate 1444): 2 µM (≈ 1.18 µg/mL) | MIC (Enterococcus faecium; E. faecium isolate 1449): 2 µM (≈ 1.18 µg/mL) | MIC (Enterococcus faecium; E. faecium isolate 1450): 2 µM (≈ 1.18 µg/mL) | MIC (Enterococcus faecium; E. faecium isolate 1451): 2 µM (≈ 1.18 µg/mL) | MIC (Enterococcus faecium; purified compound, Table 1): 1.52 µM (≈ 0.898 µg/mL) | stacked score activity, 100/MIC, E (Enterobacter cloacae; E. cloacae): 20 | MIC (Enterobacter cloacae; E. cloacae isolate 1404): 2 µM (≈ 1.18 µg/mL) | MIC (Enterobacter cloacae; E. cloacae isolate 1405): 2 µM (≈ 1.18 µg/mL) | MIC (Enterobacter cloacae; E. cloacae isolate 1430): 2 µM (≈ 1.18 µg/mL) | MIC (Enterobacter cloacae; E. cloacae isolate 1431): 2 µM (≈ 1.18 µg/mL) | MIC (Enterobacter cloacae; E. cloacae isolate 1445): 2 µM (≈ 1.18 µg/mL) | MIC (Enterobacter cloacae; E. cloacae isolate 1446): 5 µM (≈ 2.95 µg/mL) | MIC (Enterobacter cloacae; E. cloacae isolate 1447): 2 µM (≈ 1.18 µg/mL) | MIC (Enterobacter cloacae; E. cloacae isolate 1448): 2 µM (≈ 1.18 µg/mL) | MIC (Enterobacter cloacae; E. cloacae isolate 1454): 2 µM (≈ 1.18 µg/mL) | MIC (Enterobacter cloacae; E. cloacae isolate 1455): 2 µM (≈ 1.18 µg/mL) | MIC (Enterobacter cloacae; purified compound, Table 1): 1.52 µM (≈ 0.898 µg/mL) | concentration inhibiting 90% of isolates (Enterobacter cloacae; panel of E. cloacae clinical isolates): 2 µM | MIC (Pseudomonas aeruginosa; P. aeruginosa isolate 1414): 3 µM (≈ 1.77 µg/mL) | MIC (Pseudomonas aeruginosa; P. aeruginosa isolate 1415): 3 µM (≈ 1.77 µg/mL) | MIC (Pseudomonas aeruginosa; P. aeruginosa isolate 1416): 2 µM (≈ 1.18 µg/mL) | MIC (Pseudomonas aeruginosa; P. aeruginosa isolate 1417): 3 µM (≈ 1.77 µg/mL) | MIC (Pseudomonas aeruginosa; P. aeruginosa isolate 1418): 7 µM (≈ 4.14 µg/mL) | MIC (Pseudomonas aeruginosa; P. aeruginosa isolate 1419): 3 µM (≈ 1.77 µg/mL) | MIC (Pseudomonas aeruginosa; P. aeruginosa isolate 1420): 5 µM (≈ 2.95 µg/mL) | MIC (Pseudomonas aeruginosa; P. aeruginosa isolate 1421): 2 µM (≈ 1.18 µg/mL) | MIC (Pseudomonas aeruginosa; P. aeruginosa isolate 1422): 5 µM (≈ 2.95 µg/mL) | MIC (Pseudomonas aeruginosa; P. aeruginosa isolate 1423): 2 µM (≈ 1.18 µg/mL) | MIC (Pseudomonas aeruginosa; purified compound, Table 1): 1.52 µM (≈ 0.898 µg/mL) | concentration inhibiting 90% of isolates (Pseudomonas aeruginosa; panel of P. aeruginosa clinical isolates): 10 µM | increase in MIC after serial passage (A. baumannii): 8 fold | MBEC50 [2]: 4.35 µM | MBEC50 [3]: 14.54 µM | MBEC50 [4]: 45.56 µM | MBEC50 [5]: 4.81 µM | MBEC50 [6]: 26.30 µM | MBEC50 [7]: 13.10 µM
